# Measured values published in patent US20250051362A1, “SUBSTITUTED FUSED HETEROCYCLIC COMPOUND, AND PREPARATION METHOD THEREFOR AND USE THEREOF” (Shanghai Annova Biotechnology Co., Ltd., priority 2021, published 2025).
# Columns and labels:
# ATR kinase = ATR kinase (Homo sapiens (Human), UniProt Q13535); assay: In vitro ATR kinase inhibition assay (Mobility Shift Assay, Caliper EZ Reader); type: biochemical; settings: for IC50: ATP concentration of Km, 4 h at 28° C.; for ATR IC50 value (ratio to Example Compound 1): ATR IC50 of comparative compound divided by that of Example Compound 1 (5.5 nM)
# Chain of ATR kinase (Q13535 whole entry): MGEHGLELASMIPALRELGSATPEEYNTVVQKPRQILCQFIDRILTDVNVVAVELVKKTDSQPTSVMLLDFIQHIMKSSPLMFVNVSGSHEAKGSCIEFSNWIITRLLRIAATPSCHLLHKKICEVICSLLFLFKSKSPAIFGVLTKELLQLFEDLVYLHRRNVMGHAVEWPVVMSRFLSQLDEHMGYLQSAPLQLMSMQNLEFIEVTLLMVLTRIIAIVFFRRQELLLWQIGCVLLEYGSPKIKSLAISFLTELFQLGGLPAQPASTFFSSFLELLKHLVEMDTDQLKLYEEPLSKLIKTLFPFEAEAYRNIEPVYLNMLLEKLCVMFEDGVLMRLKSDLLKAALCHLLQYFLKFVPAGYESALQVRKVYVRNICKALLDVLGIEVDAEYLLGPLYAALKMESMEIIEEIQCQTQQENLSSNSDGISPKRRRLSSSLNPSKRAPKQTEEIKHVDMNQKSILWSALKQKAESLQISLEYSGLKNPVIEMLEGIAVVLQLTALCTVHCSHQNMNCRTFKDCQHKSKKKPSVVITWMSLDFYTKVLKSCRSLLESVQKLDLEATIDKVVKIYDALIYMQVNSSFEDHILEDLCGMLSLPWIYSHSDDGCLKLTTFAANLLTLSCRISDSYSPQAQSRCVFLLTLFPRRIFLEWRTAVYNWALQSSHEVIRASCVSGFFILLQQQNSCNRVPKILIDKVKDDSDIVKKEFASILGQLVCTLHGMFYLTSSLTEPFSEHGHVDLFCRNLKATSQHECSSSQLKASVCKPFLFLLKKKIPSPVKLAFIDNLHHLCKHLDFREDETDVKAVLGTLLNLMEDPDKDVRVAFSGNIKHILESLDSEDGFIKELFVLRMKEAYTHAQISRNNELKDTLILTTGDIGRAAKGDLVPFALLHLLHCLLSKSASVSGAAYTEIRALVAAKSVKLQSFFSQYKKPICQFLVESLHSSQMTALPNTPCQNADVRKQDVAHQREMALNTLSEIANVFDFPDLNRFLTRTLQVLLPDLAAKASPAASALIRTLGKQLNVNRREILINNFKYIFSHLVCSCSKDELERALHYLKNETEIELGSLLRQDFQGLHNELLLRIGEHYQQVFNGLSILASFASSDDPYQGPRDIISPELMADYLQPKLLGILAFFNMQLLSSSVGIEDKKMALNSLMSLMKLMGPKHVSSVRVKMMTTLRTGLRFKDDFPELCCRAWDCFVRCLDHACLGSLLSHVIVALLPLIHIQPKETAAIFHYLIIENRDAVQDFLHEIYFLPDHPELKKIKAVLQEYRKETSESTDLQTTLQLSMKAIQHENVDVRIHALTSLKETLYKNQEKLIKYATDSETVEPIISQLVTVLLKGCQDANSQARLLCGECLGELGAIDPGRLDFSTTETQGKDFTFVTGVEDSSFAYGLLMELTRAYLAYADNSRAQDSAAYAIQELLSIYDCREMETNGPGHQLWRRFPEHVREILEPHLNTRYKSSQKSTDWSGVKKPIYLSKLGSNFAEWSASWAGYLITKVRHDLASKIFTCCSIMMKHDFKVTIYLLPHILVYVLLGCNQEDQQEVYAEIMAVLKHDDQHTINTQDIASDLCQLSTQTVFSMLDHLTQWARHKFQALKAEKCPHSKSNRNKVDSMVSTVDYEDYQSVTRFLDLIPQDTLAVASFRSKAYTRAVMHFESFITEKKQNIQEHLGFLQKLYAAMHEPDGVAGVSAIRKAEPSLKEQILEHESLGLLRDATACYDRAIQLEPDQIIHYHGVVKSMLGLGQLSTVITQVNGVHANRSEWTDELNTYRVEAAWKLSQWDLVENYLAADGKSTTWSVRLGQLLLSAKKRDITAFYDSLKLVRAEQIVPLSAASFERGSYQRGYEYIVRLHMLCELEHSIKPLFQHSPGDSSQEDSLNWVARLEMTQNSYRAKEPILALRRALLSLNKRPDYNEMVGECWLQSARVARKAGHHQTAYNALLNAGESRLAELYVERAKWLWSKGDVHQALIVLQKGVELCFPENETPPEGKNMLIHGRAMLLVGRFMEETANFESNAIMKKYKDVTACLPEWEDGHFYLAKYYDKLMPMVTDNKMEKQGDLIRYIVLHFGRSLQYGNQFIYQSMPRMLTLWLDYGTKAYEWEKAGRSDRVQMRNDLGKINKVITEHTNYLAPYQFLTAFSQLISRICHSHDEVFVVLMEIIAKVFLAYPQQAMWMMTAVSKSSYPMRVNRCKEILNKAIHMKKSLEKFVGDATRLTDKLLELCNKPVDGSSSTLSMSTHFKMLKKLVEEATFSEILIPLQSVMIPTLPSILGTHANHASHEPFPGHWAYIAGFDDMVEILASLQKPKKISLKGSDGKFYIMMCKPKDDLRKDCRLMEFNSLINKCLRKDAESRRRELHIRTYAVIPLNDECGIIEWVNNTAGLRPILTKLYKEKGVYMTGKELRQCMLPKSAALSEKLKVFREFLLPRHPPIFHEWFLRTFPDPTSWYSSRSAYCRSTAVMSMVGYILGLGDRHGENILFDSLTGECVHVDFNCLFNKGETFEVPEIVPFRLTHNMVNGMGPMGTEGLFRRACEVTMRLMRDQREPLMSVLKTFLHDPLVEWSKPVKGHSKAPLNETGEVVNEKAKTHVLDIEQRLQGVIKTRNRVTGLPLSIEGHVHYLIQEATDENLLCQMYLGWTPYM
# Chain of ATR kinase (Q8WXE1 whole entry partner): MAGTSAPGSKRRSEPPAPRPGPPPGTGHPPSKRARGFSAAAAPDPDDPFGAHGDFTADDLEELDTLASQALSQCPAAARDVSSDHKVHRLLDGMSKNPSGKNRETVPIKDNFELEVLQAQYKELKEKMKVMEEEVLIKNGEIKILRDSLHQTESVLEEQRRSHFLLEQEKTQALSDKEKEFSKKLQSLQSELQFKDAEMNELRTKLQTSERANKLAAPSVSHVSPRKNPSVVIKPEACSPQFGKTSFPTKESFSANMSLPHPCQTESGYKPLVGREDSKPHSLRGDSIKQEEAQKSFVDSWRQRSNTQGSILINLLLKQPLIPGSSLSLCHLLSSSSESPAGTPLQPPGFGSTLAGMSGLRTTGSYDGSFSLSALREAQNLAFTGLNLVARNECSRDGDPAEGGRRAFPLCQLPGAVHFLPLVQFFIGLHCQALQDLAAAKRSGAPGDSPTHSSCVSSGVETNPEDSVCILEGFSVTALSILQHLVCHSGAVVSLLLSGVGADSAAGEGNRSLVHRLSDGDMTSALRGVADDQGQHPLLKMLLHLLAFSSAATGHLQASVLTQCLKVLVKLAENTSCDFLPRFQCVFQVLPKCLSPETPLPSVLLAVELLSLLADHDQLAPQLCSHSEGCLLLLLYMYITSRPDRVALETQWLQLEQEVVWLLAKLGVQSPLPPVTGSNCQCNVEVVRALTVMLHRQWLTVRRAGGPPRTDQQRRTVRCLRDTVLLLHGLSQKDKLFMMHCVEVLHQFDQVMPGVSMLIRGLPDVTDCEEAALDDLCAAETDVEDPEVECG
# Protocol: Experimental method: The inhibitory activity of the compounds on ATR kinase in vitro was determined by Mobility Shift Assay at an ATP concentration of Km using Caliper EZ Reader as a mobility shift assaying technology based on microfluidic chip technology.
# Experimental procedure: (1) The compounds to be tested were dissolved in DMSO and serially diluted 4× for a total of 10 concentrations; (2) 0.06 μL of the compounds at different concentrations were pipetted into a 384-well plate using an Echo pipetting system; (3) a 2× kinase solution with a concentration of 10 nM ATR kinase was prepared from the ATR kinase and the 1× kinase buffer; and a 2× substrate solution with a concentration of 6 μM 5-FAM-AK-17 and 4 μM ATP was prepared from 5-FAM-AK-17, ATP and the 1× kinase buffer; (4) 10 μL of the 2× kinase solution was added into the 384-well plate and incubated for 10 min at room temperature; 10 μL of the 2× substrate solution was then added and incubated for 4 h at 28° C.; (5) 30 μL of the termination buffer was added to terminate the reaction, and then the 384-well plate was put into the Caliper EZ Reader to read the conversion rate data.
# [1] = test system: human colon cancer LoVo cells; assay: Cell proliferation inhibition assay (CellTiter-Glo); type: cell-based; settings: for IC50 / Emax / Max Inhibition: LoVo cells, 96 hours incubation; for Emax: Homo sapiens, read-out: Max Inhibition; for LoVo IC50 value (ratio to Example Compound 1): LoVo IC50 of comparative compound divided by that of Example Compound 1 (0.66 μM)
# Text: Experimental method: A CellTiter-Glo cell viability assay kit was used to test the inhibitory effect of the compounds on the in vitro proliferation of human colon cancer LoVo cells.
# Experimental materials: LoVo cells (ATCC, Cat. No. CCL-29); F-12K medium (Invitrogen, Cat. No. 21127-022); fetal bovine serum (Biological Industries, Cat. No. 04-002-1A); GlutaMAX (Gibco, Cat. No. 35050-061); 0.25% trypsin-EDTA (Invitrogen, Cat. No. 25200-072); CellTiter-Glo kit (Promega, Cat. No. G7558).
# Experimental procedure: (1) F-12K medium, fetal bovine serum and GlutaMAX were formulated into a complete medium for culturing LoVo cells; (2) well-grown LoVo cells were taken, digested with trypsin and transferred to a centrifuge tube, and centrifuged; the supernatant was discarded, and cells were resuspended by adding a fresh medium and counted by a Vi-CELL XR cell counter; the density of the cell suspension was adjusted to 25,000 to 30,000 cells/mL, and the cell suspension was added at 100 μL/well in a 96-well cell culture plate, while a blank control group was set up with no cells added, and the cell culture plate was incubated in a carbon dioxide incubator overnight; (3) a DMSO solution of the compound to be tested was dispensed into the above 96-well cell culture plate using an HP D300 ultra-micro sampler, with 0.5 μL of the solution per well and 10 concentrations for each compound (3× dilution), while a DMSO control group with no compound added was set up, and the plate was continued to be incubated in a carbon dioxide incubator for 96 hours; (4) the cell culture plate was taken out and equilibrated to room temperature, with 100 μL of a CellTiter-Glo reagent added to each well, and then the plate was kept away from light, shaken for 10 minutes and then incubated for 10 minutes; (5) the cell culture plate was put into EnSpire for plate reading, and the luminescence value RLU was recorded.
# Data processing: (1) The inhibition rate was calculated from the luminescence values: “RLUDMSO” is the luminescence value of the DMSO control group without compound, “RLUblank” is the luminescence value of the blank control group without cells, and “RLUcompound” is the luminescence value of the compound test group, and the inhibition rate=[1−(RLUcompound−RLUblank)/(RLUDMSO−RLUblank)]×100%; (2) with curve fitting using the Excel add-on XLFit, the IC50 value was calculated.
Compound,IC50 (ATR kinase) [nM],also measured
"C[C@@H]1COCCN1c1cc(-c2ccnc3[nH]ccc23)nc2c1ccn2S(C)(=O)=O [Compound 1, (R)-3-methyl-4-(1′-(methylsulfonyl)-1H,1′H-[4,6′-dipyrrolo[2,3-b]pyridin]-4′-yl)morpholine]",5.5,IC50 [1]: 660 nM
"C[C@@H]1COCCN1c1cc(-c2cccc3[nH]ccc23)nc2c1ccn2S(C)(=O)=O [Compound 2, (R)-4-(6-(1H-indol-4-yl)-1-(methylsulfonyl)-1H-pyrrolo[2,3-b]pyridin-4-yl)-3-methylmorpholine]",4.2,Emax [1]: 94%
"C[C@@H]1COCCN1c1cc(-c2ccnc3[nH]ccc23)nc2c1ccn2C [Compound 2′, reference compound]",63,–
"C[C@@H]1COCCN1c1cc(-c2cncc3[nH]ccc23)nc2c1ccn2S(C)(=O)=O [Compound 3, (R)-3-methyl-4-(1-(methylsulfonyl)-6-(1H-pyrrolo[2,3-c]pyridin-4-yl)-1H-pyrrolo[2,3-b]pyridin-4-yl)morpholine]",10,Emax [1]: 93%
"C[C@@H]1COCCN1c1nc(-c2cncc3[nH]ccc23)nc2c1ccn2C [Compound 3′, reference compound]",31,–
"C[C@@H]1COCCN1c1cc(-c2cnc3[nH]ccc3c2)nc2c1ccn2S(C)(=O)=O [Compound 4, (R)-3-methyl-4-(1′-(methylsulfonyl)-1H,1′H-[5,6′-dipyrrolo[2,3-b]pyridin]-4′-yl)morpholine]",208,–
"C[C@@H]1COCCN1c1cc(-c2ccnc3[nH]ccc23)nc2c1ccn2CS(C)(=O)=O [Compound 4′, reference compound]",20,ATR IC50 value (ratio to Example Compound 1) (ATR kinase): 20/5.5 = 3.64; LoVo IC50 value (ratio to Example Compound 1) [1]: 2.34/0.66 = 3.55
"C[C@@H]1COCCN1c1cc(-c2c[nH]c3ncccc23)nc2c1ccn2S(C)(=O)=O [Compound 5, (R)-3-methyl-4-(1′-(methylsulfonyl)-1H,1′H-[3,6′-dipyrrolo[2,3-b]pyridin]-4′-yl)morpholine]",534,–
"CC(n1ccc2c(N3CCOC[C@H]3C)cc(-c3ccnc4[nH]ccc34)nc21)S(C)(=O)=O (some centres unmarked) [Compound 5′, reference compound]",15,ATR IC50 value (ratio to Example Compound 1) (ATR kinase): 15/5.5 = 2.73; LoVo IC50 value (ratio to Example Compound 1) [1]: 1.88/0.66 = 2.85
"Cc1c[nH]c2nccc(-c3cc(N4CCOC[C@H]4C)c4ccn(S(C)(=O)=O)c4n3)c12 [Compound 6, (R)-3-methyl-4-(3-methyl-1′-(methylsulfonyl)-1H,1′H-[4,6′-dipyrrolo[2,3-b]pyridin]-4′-yl)morpholine]",188,–
"C[C@@H]1COCCN1c1cc(-c2ccnc3[nH]ccc23)c2ccn(S(C)(=O)=O)c2n1 [Compound 6′, reference compound]",268,–
"C[C@@H]1COCCN1c1cc(-c2cc(F)cc3[nH]ccc23)nc2c1ccn2S(C)(=O)=O [Compound 7, (R)-4-(6-(6-fluoro-1H-indol-4-yl)-1-(methylsulfonyl)-1H-pyrrolo[2,3-b]pyridin-4-yl)-3-methylmorpholine]",3.2,Emax [1]: 95%
"CC(n1cnc2c(N3CCOC[C@H]3C)nc(-c3cncc4[nH]ccc34)cc21)S(C)(=O)=O (some centres unmarked) [Compound 7′, reference compound]",28,–
"C[C@@H]1COCCN1c1cc(-c2ccc(F)c3[nH]ccc23)nc2c1ccn2S(C)(=O)=O [Compound 8, (R)-4-(6-(7-fluoro-1H-indol-4-yl)-1-(methylsulfonyl)-1H-pyrrolo[2,3-b]pyridin-4-yl)-3-methylmorpholine]",78,–
"C[C@@H]1COCCN1c1cc(-c2ccn[nH]2)nc2c1ccn2S(C)(=O)=O [Compound 9, (R)-3-methyl-4-(1-(methylsulfonyl)-6-(1H-pyrazol-5-yl)-1H-pyrrolo[2,3-b]pyridin-4-yl)morpholine]",311,–
"C[C@@H]1COCCN1c1cc(-c2cn[nH]c2)nc2c1ccn2S(C)(=O)=O [Compound 10, (R)-3-methyl-4-(1-(methylsulfonyl)-6-(1H-pyrazol-4-yl)-1H-pyrrolo[2,3-b]pyridin-4-yl)morpholine]",843,–
"C[C@@H]1COCCN1c1cc(-c2nc3ccccc3[nH]2)nc2c1ccn2S(C)(=O)=O [Compound 11, (R)-4-(6-(1H-benzo[d]imidazol-2-yl)-1-(methylsulfonyl)-1H-pyrrolo[2,3-b]pyridin-4-yl)-3-methylmorpholine]",823,–
"C[C@@H]1COCCN1c1cc(-c2ncnc3[nH]ccc23)nc2c1ccn2S(C)(=O)=O [Compound 12, (R)-3-methyl-4-(1-(methylsulfonyl)-6-(7H-pyrrolo[2,3-d]pyrimidin-4-yl)-1H-pyrrolo[2,3-b]pyridin-4-yl)-morpholine]",130,–
"C[C@@H]1COCCN1c1cc(-c2ccnc3[nH]cnc23)nc2c1ccn2S(C)(=O)=O [Compound 13, (R)-4-(6-(3H-imidazo[4,5-b]pyridin-7-yl)-1-(methylsulfonyl)-1H-pyrrolo[2,3-b]pyridin-4-yl)-3-methylmorpholine]",196,–
"CC(C)S(=O)(=O)n1ccc2c(N3CCOC[C@H]3C)cc(-c3ccnc4[nH]ccc34)nc21 [Compound 14, (R)-4-(1′-(isopropylsulfonyl)-1H,1′H-[4,6′-dipyrrolo[2,3-b]pyridin]-4′-yl)-3-methylmorpholine]",35,IC50 [1]: 2130 nM; Max Inhibition [1]: 93%
"C[C@@H]1COCCN1c1cc(-c2ccnc3[nH]ccc23)nc2c1ccn2S(=O)(=O)C1CC1 [Compound 15, (R)-4-(1′-(cyclopropylsulfonyl)-1H,1′H-[4,6′-dipyrrolo[2,3-b]pyridin]-4′-yl)-3-methylmorpholine]",12,IC50 [1]: 1270 nM; Max Inhibition [1]: 94%
"C[C@@H]1COCCN1c1cc(-c2ccnc3[nH]ccc23)nc2c1ccn2S(=O)(=O)N(C)C [Compound 16, (R)-N,N-dimethyl-4′-(3-methylmorpholinyl)-1H,1′H-[4,6′-dipyrrolo[2,3-b]pyridine]-1′-sulfamide]",17,IC50 [1]: 1820 nM; Max Inhibition [1]: 93%
"C[C@@H]1COCCN1c1nc(-c2ccnc3[nH]ccc23)nc2c1ccn2S(C)(=O)=O [Compound 17, (R)-3-methyl-4-(7-(methylsulfonyl)-2-(1H-pyrrolo[2,3-b]pyridin-4-yl)-7H-pyrrolo[2,3-d]pyrimidin-4-yl)morpholine]",1.6,Emax [1]: 93%
"C[C@@H]1COCCN1c1nc(-c2cccc3[nH]ccc23)nc2c1ccn2S(C)(=O)=O [Compound 18, (R)-4-(2-(1H-indol-4-yl)-7-(methylsulfonyl)-7H-pyrrolo[2,3-d]pyrimidin-4-yl)-3-methylmorpholine]",2.3,Emax [1]: 92%
"C[C@@H]1COCCN1c1nc(-c2cncc3[nH]ccc23)nc2c1ccn2S(C)(=O)=O [Compound 19, (R)-3-methyl-4-(7-(methylsulfonyl)-2-(1H-pyrrolo[2,3-c]pyridin-4-yl)-7H-pyrrolo[2,3-d]pyrimidin-4-yl)morpholine]",1.6,Emax [1]: 90%
"C[C@@H]1COCCN1c1nc(-c2cc(F)cc3[nH]ccc23)nc2c1ccn2S(C)(=O)=O [Compound 20, (R)-4-(2-(6-fluoro-1H-indol-4-yl)-7-(methylsulfonyl)-7H-pyrrolo[2,3-d]pyrimidin-4-yl)-3-methylmorpholine]",1.6,Emax [1]: 91%
"C[C@@H]1COCCN1c1nc(-c2ccnc3[nH]ccc23)nc2c1ccn2S(=O)(=O)CCO [Compound 21, (R)-2-((4-(3-methylmorpholinyl)-2-(1H-pyrrolo[2,3-b]pyridin-4-yl)-7H-pyrrolo[2,3-d]pyrimidin-7-yl)sulfonyl)ethanol]",4.4,IC50 [1]: 710 nM; Max Inhibition [1]: 92%
